According to PMC6695598, “The Development of Tetrazole Derivatives as Protein Arginine Methyltransferase I (PRMT I) Inhibitors” (International Journal of Molecular Sciences, 2019):
Structures can show the parent of a compound that is named as a salt.

Legend:
PRMT1 = PRMT1 (Homo sapiens, UniProt Q99873); assay: radioactive PRMT1 methylation inhibition assay ([3H]-SAM, biotinylated histone H4 peptide); assay type: biochemical; settings: for % Inhibition of PRMT1 (at 10 μM) / inhibition at 10 µM: 10 μM compound, initial screening
Procedure: A series of 1,5-substituded tetrazole derivatives were synthesized to investigate the structure-activity relationship (SAR) of PRMT1 inhibitors (Table 1). […] The chemical modification of these compounds is mainly focused on the substituted benzene ring. The initial screening of these compounds was carried out using the radioactive PRMT1 methylation inhibition assay, which measured the amount of methyl groups that transferred from [^3H]-SAM to a biotinylated histone H4 peptide (ac- […](Biotin)). […] In the second step, the Group II compounds were designed and synthesized by extending the ethylenediamine side chain to propylenediamine.
(§1) The enzyme inhibitory activities were measured by the radioisotope assay in ShangHai Chempartner Co. Ltd. according to the standard protocol. The similar procedure was recently performed in the publication The radioactive methylation assay was performed in 1× assay buffer (modified Tris buffer) system containing enzyme (PRMT1/5), peptide and [^3H]-SAM solution and compounds on the assay plate. […] Afterwards, the reaction was stopped with addition of 5 μL cold SAM solution to per well. Then, 25 μL of volume per well was transferred to Flashplate from assay plate and incubated for 1 h minimum at room temperature. Finally, the Flashplate was washed with dH2O and 0.1% Tween-20 three times and then reading plate in Mi crobeta using program ^3H-Flashplate. The data was analyzed in GraphPad Prism 5 to obtain IC50 values.

PRMT5 = PRMT5 (Homo sapiens, UniProt O14744); assay: radioactive methylation assay, PRMT5 selectivity; assay type: biochemical
Procedure: as §1

Sequence of PRMT1 (Q99873 whole entry): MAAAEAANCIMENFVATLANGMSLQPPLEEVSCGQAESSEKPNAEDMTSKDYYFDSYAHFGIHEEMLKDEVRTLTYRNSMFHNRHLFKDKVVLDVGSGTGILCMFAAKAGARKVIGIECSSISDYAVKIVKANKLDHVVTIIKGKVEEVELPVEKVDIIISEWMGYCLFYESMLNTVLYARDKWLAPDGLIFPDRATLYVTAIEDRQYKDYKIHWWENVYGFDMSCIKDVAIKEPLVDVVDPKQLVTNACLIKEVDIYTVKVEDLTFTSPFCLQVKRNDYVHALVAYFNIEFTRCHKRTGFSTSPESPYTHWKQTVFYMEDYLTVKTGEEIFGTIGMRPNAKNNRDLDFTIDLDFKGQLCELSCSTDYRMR
Sequence of PRMT5 (O14744 whole entry, species assumed): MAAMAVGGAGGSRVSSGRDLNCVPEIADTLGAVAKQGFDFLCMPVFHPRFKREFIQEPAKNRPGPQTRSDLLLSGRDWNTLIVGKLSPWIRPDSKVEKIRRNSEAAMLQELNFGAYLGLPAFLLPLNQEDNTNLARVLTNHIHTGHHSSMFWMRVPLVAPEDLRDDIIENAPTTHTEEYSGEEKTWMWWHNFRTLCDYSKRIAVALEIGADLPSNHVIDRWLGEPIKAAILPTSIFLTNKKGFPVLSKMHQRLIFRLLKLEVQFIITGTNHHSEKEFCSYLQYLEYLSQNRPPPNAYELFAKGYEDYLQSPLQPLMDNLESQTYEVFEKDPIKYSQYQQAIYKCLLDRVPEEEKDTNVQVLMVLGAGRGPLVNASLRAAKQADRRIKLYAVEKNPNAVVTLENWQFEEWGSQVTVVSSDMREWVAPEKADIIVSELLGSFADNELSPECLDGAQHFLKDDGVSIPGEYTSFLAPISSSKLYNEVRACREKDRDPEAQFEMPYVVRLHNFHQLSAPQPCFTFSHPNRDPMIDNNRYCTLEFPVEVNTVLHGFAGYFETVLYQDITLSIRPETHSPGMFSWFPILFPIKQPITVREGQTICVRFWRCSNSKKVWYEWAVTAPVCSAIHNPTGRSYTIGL
Sequence of PRMT5 (Q9BQA1 whole entry partner, species assumed): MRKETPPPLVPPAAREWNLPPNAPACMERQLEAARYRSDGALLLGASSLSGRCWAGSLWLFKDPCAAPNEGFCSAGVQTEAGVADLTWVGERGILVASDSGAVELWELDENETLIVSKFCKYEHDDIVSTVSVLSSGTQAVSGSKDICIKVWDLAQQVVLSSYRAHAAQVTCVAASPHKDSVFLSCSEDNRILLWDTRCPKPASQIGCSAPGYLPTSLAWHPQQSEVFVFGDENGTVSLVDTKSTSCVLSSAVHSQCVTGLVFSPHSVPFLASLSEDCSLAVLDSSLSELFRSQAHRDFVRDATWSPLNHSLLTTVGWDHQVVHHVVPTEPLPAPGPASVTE

Compound | melting point | inhibition at 10 µM (PRMT1) | further results
N,N’-Dimethyl-N’-(1-(4-methylsulfonylphenyl)-1H-tetrazol-5-yl-methyl)ethylenediamine hydrochloride [16a] |  |  | % Inhibition of PRMT1 (at 10 μM) (PRMT1): 23%
CC(C)Oc1ccc(-n2nnnc2CN2CCN(CCN)CC2)cc1 [18e, N-aminoethyl-N’-(1-(4-isopropoxyphenyl)-1H-tetrazol-5-yl-methyl)-piperazinehydrochloride] |  |  | IC50 (PRMT5): > 100 µM
N,N’-Dimethyl-N’-(1-(3-methylsulfonylphenyl)-1H-tetrazol-5-yl-methyl)-1,3-propylenediamine hydrochloride [16e] |  |  | % Inhibition of PRMT1 (at 10 μM) (PRMT1): −4%
CNCCN(C)Cc1nnnn1-c1cccc(OC(C)C)c1 [9b, N,N’-Dimethyl-N’-(1-(3-isopropoxyphenyl)-1H-tetrazol-5-yl-methyl)ethylenediamine hydrochloride] |  | 0% | 
CNCCCN(C)Cc1nnnn1-c1cccc(OC)c1 [10d, N,N’-Dimethyl-N’-(1-(3-methoxyphenyl)-1H-tetrazol-5-yl-methyl)-1,3-propylenediamine hydrochloride] |  | -14% | 
CNCCCN(C)Cc1nnnn1-c1ccc(OC)cc1.Cl [10c, N,N’-Dimethyl-N’-(1-(4-methoxyphenyl)-1H-tetrazol-5-yl-methyl)-1,3-propylenediamine hydrochloride] | 188.2 to 190.1 °C | -6% | 
CNCCN(C)Cc1nnnn1-c1cccc(OC)c1.Cl [9d, N,N’-Dimethyl-N’-(1-(3-methoxyphenyl)-1H-tetrazol-5-yl-methyl)ethylenediamine hydrochloride] | 185.6 to 186.4 °C | 7% | 
CNCCN(C)Cc1nnnn1-c1ccc(OC)cc1.Cl [9c, N,N’-Dimethyl-N’-(1-(4-methoxyphenyl)-1H-tetrazol-5-yl-methyl)ethylenediamine hydrochloride] | 163.2 to 163.6 °C | 3% | 
CNCCN(C)Cc1nnnn1-c1ccc(OC(F)(F)F)cc1.Cl [9f, N,N’-Dimethyl-N’-(1-(4-trifluoromethoxyphenyl)-1H-tetrazol-5-yl-methyl)ethylenediamine hydrochloride] | 194.3 to 195.2 °C |  | IC50 (PRMT5): > 100 µM
CNCCCN(C)Cc1nnnn1-c1cccc(OC(C)C)c1 [10b, N,N’-Dimethyl-N’-(1-(3-isopropoxyphenyl)-1H-tetrazol-5-yl-methyl)-1,3-propylenediamine hydrochloride] |  | 0% | 
CNCCCN(C)Cc1nnnn1-c1cccc(OC(F)(F)F)c1 [10e, N,N’-Dimethyl-N’-(1-(3-trifluoromethoxyphenyl)-1H-tetrazol-5-yl-methyl)-1,3-propylenediamine hydrochloride] |  | -12% | 
CNCCN(C)Cc1nnnn1-c1cccc(OC(F)(F)F)c1.Cl [9e, N,N’-Dimethyl-N’-(1-(3-trifluoromethoxyphenyl)-1H-tetrazol-5-yl-methyl)ethylenediamine hydrochloride] | 185.6 to 186.4 °C | -17% | 
N-Guanidino-N’-(1-(4-isopropoxyphenyl)-1H-tetrazol-5-yl-methyl)-N’-methyl-ethylenediamine hydrochloride [compound 20] |  |  | % Inhibition of PRMT1 (at 10 μM) (PRMT1): −7%
CNCCCN(C)Cc1nnnn1-c1ccc(OC(C)C)cc1 [10a, N,N’-Dimethyl-N’-(1-(4-isopropoxyphenyl)-1H-tetrazol-5-yl-methyl)-1,3-propylenediamine hydrochloride] |  | 23% | 
N,N’-Dimethyl-N’-(1-(3-methylsulfonylphenyl)-1H-tetrazol-5-yl-methyl)ethylenediamine hydrochloride [16b] |  |  | % Inhibition of PRMT1 (at 10 μM) (PRMT1): 13%

Continued, in another order:

melting point | inhibition at 10 µM (PRMT1) | Compound | further results
183.2 to 183.9 °C |  | CC(C)Oc1ccc(-n2nnnc2CN2CCN(CCN)CC2)cc1 (as salt: hydrochloride) [18e, N-aminoethyl-N’-(1-(4-isopropoxyphenyl)-1H-tetrazol-5-yl-methyl)-piperazinehydrochloride] | 
 | 18% | CC(C)Oc1ccc(-n2nnnc2CNCCN)cc1 [18d, N-(1-(4-Isopropoxyphenyl)-1H-tetrazol-5-yl-methyl)-ethylenediaminehydrochloride] | 
186.5 to 187.7 °C | 50% | CC(C)Oc1ccc(-n2nnnc2CN(C)CCN)cc1.Cl [18a, N-(1-(4-Isopropoxyphenyl)-1H-tetrazol-5-yl-methyl)-N-methyl-ethylenediamine hydrochloride] | IC50 (PRMT5): > 100 µM; IC50 (PRMT1): 10 µM
188.7 to 190 °C |  | CNCCN(C)Cc1nnnn1-c1ccc(OCC(F)(F)F)cc1.Cl [16c, N,N’-Dimethyl-N’-(1-(4-(2,2,2-trifluoroethoxy)phenyl)-1H-tetrazol-5-yl-methyl)ethylenediamine hydrochloride] | IC50 (PRMT5): > 100 µM
 | 15% | CC(C)Oc1ccc(-n2nnnc2CN(C)CCCN)cc1 [18b, N-(1-(4-Isopropoxyphenyl)-1H-tetrazol-5-yl-methyl)-N-methyl-1,3-propylenediamine hydrochloride] | 
179.7 to 180.7 °C | 10% | CNCCNCc1nnnn1-c1ccc(OC(C)C)cc1.Cl [18c, N-Methyl-N’-(1-(4-isopropoxyphenyl)-1H-tetrazol-5-yl-methyl)-ethylenediamine hydrochloride] | 
183.1 to 183.9 °C |  | CC(C)Oc1ccc(-n2nnnc2CNCCN)cc1 (as salt: hydrochloride) [18d, N-(1-(4-Isopropoxyphenyl)-1H-tetrazol-5-yl-methyl)-ethylenediaminehydrochloride] | 
 | 3% | CNCCN(C)Cc1nnnn1-c1cccc(OCC(F)(F)F)c1 [16d, N,N’-Dimethyl-N’-(1-(3-(2,2,2-trifluoroethoxy)phenyl)-1H-tetrazol-5-ylmethyl)ethylenediamine hydrochloride] | 
